Laboratory results: publication PMC9423655, “Huntington’s disease phenotypes are improved via mTORC1 modulation by small molecule therapy” (PLoS ONE, 2022)

Experiments:
mTORC1 = mTORC1 activation (pS6K1 immunoblot) in leucine-starved HEK293T cells; type: cell-based; conditions: HEK293T cells starved of leucine 50 minutes, treatment 10 minutes
Procedure: All cell lines were cultured in DMEM (Corning, #MT10013CV) supplemented with 10% heat-inactivated FBS (Gibco, #16140–071). All cell lines were maintained at 37°C and 5% CO2. For amino acid starvation, cells were rinsed once with and incubated Amino acid-free RPMI (US Biologicals, #R8999-04A) supplemented with 10% dialyzed FBS (Gibco, #26400044) for 50 min followed by treatment with NV-5297, leucine, or vehicle for 10 minutes. For leucine starvation, cells were rinsed once with and incubated in leucine-free DMEM (AthenaES, #0420) supplemented with 10% dialyzed FBS (Gibco, #26400044) for 50 minuted followed by treatment with NV-5297, leucine, or vehicle for 10 minutes.
(A) Activation of the mTORC1 pathway by NV-5297. […] (B) NV-5297 disrupts Sestrin2/GATOR2 in the in vitro Sesn2/WDR24 protein-protein interaction assay in a dose-dependent manner. […] Representative immunoblots of ^T389pS6K1 and quantification of the normalized level of ^T389pS6K1 from 8 independent experiments (F) show TORC1 activity in unedited HEK-293T cells, HEK-293T cells deficient for Sestrin 1 (Sesn1), 2 (Sesn2) and 3 (Sesn3) (D) or HEK-293T cells deficient for the GATOR1 component Nprl3 (E) after 50 minutes leucine starvation followed by the addition of vehicle, NV-5297 or leucine for 10 minutes. […]

[1] = system: mTORC1 pathway in striatum; assay: Chronic 6-week treatment: striatum immunoblots; type: in vivo, N171-82Q mice
Source text: (§1) Animals were sacrificed by live decapitation one hour after the last oral dosing. Whole hearts were excised, blot-dried and weighed on an analytical balance. The heart was bisected transversely and the apical halves was preserved for cardiomyocyte and fibrosis staining. Left tibias were isolated and measured with an electronic caliper. The brain left hemisphere was preserved for MSN size measurement. The brain right hemisphere was microdissected and the medial pre-frontal cortex, striatum, cortex, hippocampus and cerebellum were collected.
Specific regions of the brain and heart were homogenized using a Next Advance Bullet Blender Storm in Lysis Buffer (Cell lysis buffer: 1% Triton X-100, 50 mM HEPES pH 7.4, 100 mM sodium chloride, 2 mM EDTA, 10 mM Beta-glycerophosphate, 10 mM Sodium pyrophosphate, and 1 protease inhibitor) at 4°C. Lysates were cleared by centrifugation at 13,200 rpm at 4°C for 10 minutes. Equal amounts of total protein from each sample were denatured and, resolved by SDS-PAGE. Membranes were imaged using the LI-COR imaging system. Proteins levels are normalized to tubulin, actin or GAPDH levels and further normalized to vehicle treated mice for each tissue.
Fig 3 Activation of the mTORC1 pathway in the striatum following daily oral dosing of NV-5297. (A) Representative immunoblots of the striatum for normalized phosphorylated S6 [^S240/244pS6], S6, phosphorylated Akt [^S437pAkt], Akt, phosphorylated mTOR [^S2448pmTOR], mTOR, DARPP-32, phosphorylated 4E-BP1 [^Thr37/46p4E-BP1], 4E-BP1 and Actin from homogenized striatum isolated from N171-82Q males after 6 weeks of daily oral dosing of NV-5297 (160 mg/kg) or vehicle [Veh]. (B) Quantification of the immunoblots from homogenized striatum isolated 1 hour after the final oral dosing with NV-5297 (160 mg/kg; n = 14) normalized to loading control levels and further normalized to vehicle treated mice (n = 15). A significant Spearman correlation is present between pS6/S6 and DARPP32 levels. Data are presented as mean ± SEM. *P ≤ 0.05, ***P ≤ 0.001, ****P ≤ 0.0001 (one-tailed unpaired Student’s t-test [pmTOR/mTOR, DARPP-32], with a Welch’s correction [pS6/S6, p4E-BP1/4E-BP1], Mann-Whitney test [pAkt/Akt].

N171-82Q HD mice = assay: Chronic 6-week treatment: echocardiography and heart weight; type: in vivo; conditions: N171-82Q mice, 160 mg/kg daily 6 weeks
Source text: as §1
Mice were anesthetized with 2% isoflurane and restrained on a stage with electrocardiogram (EKG) sensors. Transthoracic echocardiograms were performed using the Vevo 3100 Imaging System with a linear array MX550D transducer. Images were acquired by an experienced echocardiographer and then analyzed offline using the Vevo LAB analysis software. Parasternal long axis views and short axis views were used to assess left ventricular function. Measurements were performed to evaluate left ventricular dimensions during both systole and diastole of the cardiac cycle. The Vevo LAB left ventricle [LV] analysis tool, LV trace, was used to calculate cardiac output [CO] (heart rate ∙ stroke volume), fractional shortening [FS] (ventricle diameter at the end of the diastole–ventricle diameter at the end of the systole), ejection fraction [EF] (percentage of blood ejected by the left ventricle by heart beat), stroke volume (SV) (blood volume ejected from the left ventricle per beat), heart rate [HR] (bpm), left ventricular mass [LVmass], dimensions and volumes. Both imaging and analysis were performed by an operator blinded to the mice experimental treatment.
Fig 5 Oral dosing with NV-5297 over 6 weeks improves cardiac function and activates the mTORC1 pathway. […] (E) Quantification of the immunoblots for homogenized heart isolated 1 hour after oral dosing with NV-5297 (160 mg/kg; n = 14) normalized to loading control levels and further normalized to vehicle (Veh) treated mice (n = 15). […]

[2] = N171-82Q mice, 160 mg/kg daily 6 weeks
[3] = N171-82Q mice, 160 mg/kg daily 6 weeks, 1 hour after final dose

CC(C)(C[C@H](N)C(=O)O)C(F)(F)F [NV-5297, (S)-2-amino-5,5,5-trifluoro-4,4-dimethylpentanoic acid]
mTORC1 activation measured by phosphorylated S6K1 (pS6K1 / p70S6K1) (mTORC1): activates mTORC1 in leucine-starved HEK293T cells in a dose-dependent manner
striatal p4E-BP1/4E-BP1 [1, 2]: unchanged
striatal pAkt/Akt [1, 2]: unchanged
striatal pmTOR/mTOR [1, 2]: unchanged
striatal DARPP-32 [1, 3]: significantly elevated
striatal pS6 [1, 3]: significantly elevated
duration of mTORC1 pathway activation ([1]; NV-5297 daily treatment, response to reviewers): ~ 3 hours per day
heart mass (N171-82Q HD mice): no discernable effect
ejection fraction compared to vehicle (N171-82Q HD mice; echocardiography): increased
fractional shortening compared to vehicle (N171-82Q HD mice; echocardiography): increased
